Tests used:
Format in all cases: functional, Mesocricetus auratus
Syrian golden hamster [1] = assay: Antihyperlipidemic activity against high fat diet fed gloden syrian hamster assessed as change in triglyceride level at 10 mg/kg, po for 7 days
Syrian golden hamster [2] = assay: Antihyperlipidemic activity against high fat diet fed gloden syrian hamster assessed as change in total cholesterol level at 10 mg/kg, po for 7 days
Syrian golden hamster [3] = assay: Antihyperlipidemic activity against high fat diet fed gloden syrian hamster assessed as change in HDL level at 10 mg/kg, po for 7 days
Syrian golden hamster [4] = assay: Antihyperlipidemic activity against high fat diet fed gloden syrian hamster assessed as change in HDL to total cholesterol ratio at 10 mg/kg, po for 7 days
Syrian golden hamster [5] = assay: Antihyperlipidemic activity against high fat diet fed gloden syrian hamster assessed as change in triglyceride level at 25 mg/kg, po for 7 days
Syrian golden hamster [6] = assay: Antihyperlipidemic activity against high fat diet fed gloden syrian hamster assessed as change in total cholesterol level at 25 mg/kg, po for 7 days
Syrian golden hamster [7] = assay: Antihyperlipidemic activity against high fat diet fed gloden syrian hamster assessed as change in HDL level at 25 mg/kg, po for 7 days
Syrian golden hamster [8] = assay: Antihyperlipidemic activity against high fat diet fed gloden syrian hamster assessed as change in HDL to total cholesterol ratio at 25 mg/kg, po for 7 days

COC(=O)c1cc2cc(C(c3c(C)n(C)c4ccccc34)c3c(C)n(C)c4ccccc34)c3ccccc3c2oc1=O
Activity (Syrian golden hamster [1]): -29%
Activity (Syrian golden hamster [2]): -4%
Activity (Syrian golden hamster [3]): -3%
Activity (Syrian golden hamster [4]): 2%

CCOC(=O)c1cc2cc(C(c3cn(C)c4ccccc34)c3cn(C)c4ccccc34)c3ccccc3c2oc1=O
Activity (Syrian golden hamster [1]): -33%
Activity (Syrian golden hamster [2]): 3%
Activity (Syrian golden hamster [3]): 22%
Activity (Syrian golden hamster [4]): 18%

CCOC(=O)c1cc2cc(C(c3c(C)[nH]c4ccccc34)c3c(C)[nH]c4ccccc34)c3ccccc3c2oc1=O
Activity (Syrian golden hamster [1]): -35%
Activity (Syrian golden hamster [2]): -7%
Activity (Syrian golden hamster [3]): 14%
Activity (Syrian golden hamster [4]): 24%

CCOC(=O)c1cc2cc(C(c3c(C)n(C)c4ccccc34)c3c(C)n(C)c4ccccc34)c3ccccc3c2oc1=O
Activity (Syrian golden hamster [1]): -45%
Activity (Syrian golden hamster [2]): -38%
Activity (Syrian golden hamster [3]): -31%
Activity (Syrian golden hamster [4]): 11%

CCOC(=O)c1cc2cc(C(c3c(C)n(C)c4ccccc34)c3c(C)n(C)c4ccccc34)cc(C(C)CC)c2oc1=O (stereo unspecified)
Activity (Syrian golden hamster [1]): -57%
Activity (Syrian golden hamster [2]): -43%
Activity (Syrian golden hamster [3]): -20%
Activity (Syrian golden hamster [4]): 39%

COC(=O)c1cc2cc(C(c3c[nH]c4ccccc34)c3c[nH]c4ccccc34)c3ccccc3c2oc1=O
Activity (Syrian golden hamster [1]): -50%
Activity (Syrian golden hamster [2]): -12%
Activity (Syrian golden hamster [3]): 13%
Activity (Syrian golden hamster [4]): 30%

COC(=O)c1cc2cc(C(c3cn(C)c4ccccc34)c3cn(C)c4ccccc34)c3ccccc3c2oc1=O
Activity (Syrian golden hamster [1]): -35%
Activity (Syrian golden hamster [2]): 6%
Activity (Syrian golden hamster [3]): -17%
Activity (Syrian golden hamster [4]): 12%

COC(=O)c1cc2cc(C(c3c(C)[nH]c4ccccc34)c3c(C)[nH]c4ccccc34)c3ccccc3c2oc1=O
Activity (Syrian golden hamster [1]): -33%
Activity (Syrian golden hamster [2]): -17%
Activity (Syrian golden hamster [3]): 1%
Activity (Syrian golden hamster [4]): 24%

CCOC(=O)c1cc2cc(C(c3c[nH]c4ccccc34)c3c[nH]c4ccccc34)c3ccccc3c2oc1=O
Activity (Syrian golden hamster [1]): -55%
Activity (Syrian golden hamster [2]): -20%
Activity (Syrian golden hamster [3]): 14%
Activity (Syrian golden hamster [4]): 42%

CCOC(=O)c1cc2cc(C(c3c[nH]c4ccccc34)c3c[nH]c4ccccc34)cc(C(C)CC)c2oc1=O (stereo unspecified)
Activity (Syrian golden hamster [1]): -10%
Activity (Syrian golden hamster [2]): 28%
Activity (Syrian golden hamster [3]): 11%
Activity (Syrian golden hamster [4]): -14%

CCOC(=O)c1cc2cc(C(c3cn(C)c4ccccc34)c3cn(C)c4ccccc34)cc(C(C)CC)c2oc1=O (stereo unspecified)
Activity (Syrian golden hamster [1]): -43%
Activity (Syrian golden hamster [2]): -36%
Activity (Syrian golden hamster [3]): -24%
Activity (Syrian golden hamster [4]): 18%

CCOC(=O)c1cc2cc(C(c3c(C)[nH]c4ccccc34)c3c(C)[nH]c4ccccc34)cc(C(C)CC)c2oc1=O (stereo unspecified)
Activity (Syrian golden hamster [1]): -39%
Activity (Syrian golden hamster [2]): -21%
Activity (Syrian golden hamster [3]): -13%
Activity (Syrian golden hamster [4]): 9%

CC(C)c1c(C(=O)Nc2ccccc2)c(-c2ccccc2)c(-c2ccc(F)cc2)n1CC[C@@H](O)C[C@@H](O)CC(=O)O [ATORVASTATIN]
Activity (Syrian golden hamster [1]): -63%
Activity (Syrian golden hamster [2]): -14%
Activity (Syrian golden hamster [3]): 15%
Activity (Syrian golden hamster [4]): 35%

CC[C@H](C)C(=O)O[C@H]1C[C@@H](C)C=C2C=C[C@H](C)[C@H](CC[C@@H]3C[C@@H](O)CC(=O)O3)[C@H]21 [LOVASTATIN]
Activity (Syrian golden hamster [5]): -29%
Activity (Syrian golden hamster [6]): -9%
Activity (Syrian golden hamster [7]): 3%
Activity (Syrian golden hamster [8]): 12%

From ChEMBL document CHEMBL1268958, “Synthesis and antihyperlipidemic activity of novel coumarin bisindole derivatives” (2010)
